Entries after “also recorded” stand apart in the source; their conditions may differ.
Tests used:
[1] = tested on: Arabidopsis thaliana plants; assay: SOA1 phenotypic analysis of herbicide-treated Arabidopsis plants; format: in vivo; conditions: for characteristic symptoms (phenotypic analysis): herbicide-treated Arabidopsis; for Symptom Class: three-week-old Arabidopsis treated with herbicide, phenotypes shown in FIG. 12; for leafCurling (Dev.) / leafTwisting (Dev.) / leafWidth (Dev.) / matureLeafAnthocyanins (Dev.) / matureLeafChlorosis (Dev.) / matureLeafNecrosis (Dev.) / newLeafAnthocyanins (Dev.) / newLeafChlorosis (Dev.) / newLeafNecrosis (Dev.) / pointedLeaves (Dev.): numeric value standardized to mock treated tissues; for tMic (Dev.): score for time to full symptoms at minimum inhibitory concentration
Arabidopsis thaliana [2] = assay: MOA1 biochemical (metabolite) profiling by LC-MS and GC-MS of sprayed Arabidopsis; conditions: for Number of Metabolites Changed: (unknown #) / Number of Metabolites Changed: Total #: 1 hr; for commonly regulated (putative stress-related) metabolites: MOA1, 20 minutes and 1 hour after spraying
Magnaporthe grisea = format: cell-based
Arabidopsis thaliana [3] = assay: MOA1 gene expression profiling (22,000 gene array) of sprayed Arabidopsis; conditions: for extent of gene expression perturbation compared to the other treatments: 1 hr; for No. of Lethal Genes Altered: regulated genes (1 hr) found in list of genes essential for plant growth and development
Arabidopsis plants = conditions: nitrate addition to N-starved Arabidopsis; cited from earlier work
[4] = tested on: Saccharomyces cerevisiae wild type strain BY4743; assay: AF1 metabolite analysis (GC-MS, LC-MS) of yeast treated with antifungal drugs; format: cell-based

Structure (SMILES): COC(=O)c1cc(Oc2ccc(Cl)cc2Cl)ccc1[N+](=O)[O-] [Bifenox]
- characteristic symptoms (phenotypic analysis) [1]: Necrotic leaf flecks
- Symptom Class [1]: 6

Structure (SMILES): CCNc1nc(Cl)nc(NC(C)C)n1 [Atrazine]
- characteristic symptoms (phenotypic analysis) [1]: rapid and widespread leaf necrosis
- Symptom Class [1]: 7

Structure (SMILES): O=C(O)CNCP(=O)(O)O [Glyphosate]
- characteristic symptoms (phenotypic analysis) [1]: anthocyanin accumulation in the older leaves accompanied by chlorosis of the newly emerging leaves
- leafCurling (Dev.) [1]: 0
- leafTwisting (Dev.) [1]: 0
- leafWidth (Dev.) [1]: 0
- matureLeafAnthocyanins (Dev.) [1]: 3
- matureLeafChlorosis (Dev.) [1]: 1
- matureLeafNecrosis (Dev.) [1]: 3
- newLeafAnthocyanins (Dev.) [1]: 1
- newLeafChlorosis (Dev.) [1]: 2
- newLeafNecrosis (Dev.) [1]: 0
- pointedLeaves (Dev.) [1]: 1
- tMic (Dev.) [1]: 2
- Symptom Class [1]: 4
- tyrosine level (Arabidopsis thaliana [2]; MOA1 metabolite data, one hour, relative to the control): decreased relative to the control after one hour
- Tier 4: growth of M. grisea with ammonium or glutamine as nitrogen source (Magnaporthe grisea): Little growth defect
- growth of M. grisea with nitrate, nitrite, or glutamate as the sole nitrogen source (Magnaporthe grisea): inhibited growth
- comparison of growth results for Tiers 3 and 4 (Unknown 4 versus glyphosate) (Magnaporthe grisea; 250 μg/ml): nearly identical as compared to Unknown 4
- growth inhibition of M. grisea and its remediation (Magnaporthe grisea; glyphosate at 1.0 mg/ml): remediated by inclusion of aromatic amino acids

Structure (SMILES): COC(=O)NS(=O)(=O)c1ccc(N)cc1 [Asulam]
- extent of gene expression perturbation compared to the other treatments (Arabidopsis thaliana [3]): fewest gene expression perturbations
- No. of Lethal Genes Altered (Arabidopsis thaliana [3]): 5

Structure (SMILES): c1cc[n+]2c(c1)-c1cccc[n+]1CC2 [Diquat]
- characteristic symptoms (phenotypic analysis) [1]: rapid and widespread leaf necrosis
- leafCurling (Dev.) [1]: 2
- leafTwisting (Dev.) [1]: 0
- leafWidth (Dev.) [1]: −2
- matureLeafAnthocyanins (Dev.) [1]: 0
- matureLeafChlorosis (Dev.) [1]: 1
- matureLeafNecrosis (Dev.) [1]: 4
- newLeafAnthocyanins (Dev.) [1]: 0
- newLeafChlorosis (Dev.) [1]: 1
- newLeafNecrosis (Dev.) [1]: 4
- pointedLeaves (Dev.) [1]: 1
- tMic (Dev.) [1]: 2
- Symptom Class [1]: 7

Structure (SMILES): CC(C)N1C(=O)c2ccccc2NS1(=O)=O [Bentazon]
- characteristic symptoms (phenotypic analysis) [1]: rapid and widespread leaf necrosis
- Symptom Class [1]: 7

Structure (SMILES): CSc1nnc(C(C)(C)C)c(=O)n1N [Metribuzin]
- characteristic symptoms (phenotypic analysis) [1]: rapid and widespread leaf necrosis
- Symptom Class [1]: 7

Structure (SMILES): CP(=O)(O)CCC(N)C(=O)O (stereo not shown) [Glufosinate]
- characteristic symptoms (phenotypic analysis) [1]: Chlorosis and leaf curling
- leafCurling (Dev.) [1]: 2
- leafTwisting (Dev.) [1]: 1
- leafWidth (Dev.) [1]: −2
- matureLeafAnthocyanins (Dev.) [1]: 0
- matureLeafChlorosis (Dev.) [1]: 3
- matureLeafNecrosis (Dev.) [1]: 0
- newLeafAnthocyanins (Dev.) [1]: 0
- newLeafChlorosis (Dev.) [1]: 3
- newLeafNecrosis (Dev.) [1]: 0
- pointedLeaves (Dev.) [1]: 1
- tMic (Dev.) [1]: 1
- Symptom Class [1]: 3
- Number of Metabolites Changed: (unknown #) (Arabidopsis thaliana [2]; p < 0.05): 4(4)
- Number of Metabolites Changed: Total # (Arabidopsis thaliana [2]; p < 0.05): 4(4)
- Number of Metabolites Changed: (unknown #) (Arabidopsis thaliana [2]; p < 0.11): 9(9)
- Number of Metabolites Changed: Total # (Arabidopsis thaliana [2]; p < 0.11): 9(9)
- commonly regulated (putative stress-related) metabolites (Arabidopsis thaliana [2]): Only a few, if any, stress-related metabolites were observed
- nitrogen sources M. grisea can utilize in the presence of the compound (Magnaporthe grisea): only able to utilize glutamine and glutamate as nitrogen sources
- No. of Lethal Genes Altered (Arabidopsis thaliana [3]): 10

Structure (SMILES): COc1nc(C)nc(NC(=O)NS(=O)(=O)c2ccccc2Cl)n1 [Chlorsulfuron]
- characteristic symptoms (phenotypic analysis) [1]: anthocyanin accumulation in the older leaves accompanied by chlorosis of the newly emerging leaves
- Symptom Class [1]: 4
- No. of Lethal Genes Altered (Arabidopsis thaliana [3]): 8

Structure (SMILES): O=C(O)c1ccccc1C(=O)Nc1cccc2ccccc12 [Naptalam]
- extent of gene expression perturbation compared to the other treatments (Arabidopsis thaliana [3]): fewest gene expression perturbations
- No. of Lethal Genes Altered (Arabidopsis thaliana [3]): 3

Structure (SMILES): O=C(O)c1cc(Oc2ccc(C(F)(F)F)cc2Cl)ccc1[N+](=O)[O-] [Acifluorfen]
- characteristic symptoms (phenotypic analysis) [1]: Necrotic leaf flecks
- Symptom Class [1]: 6

Structure (SMILES): CC(C)C1(C)N=C(c2ncccc2C(=O)O)NC1=O (stereo not shown) [Imazapyr]
- characteristic symptoms (phenotypic analysis) [1]: anthocyanin accumulation in the older leaves accompanied by chlorosis of the newly emerging leaves
- Symptom Class [1]: 4
- commonly regulated (putative stress-related) metabolites (Arabidopsis thaliana [2]): Only a few, if any, stress-related metabolites were observed

Structure (SMILES): O=[N+]([O-])O [Nitrate, nitrate]
- Nitrate Regulation of Glutamate synthetase (Arabidopsis plants): ↑
- Nitrate Regulation of Glutamine synthetase(2) (Arabidopsis plants): ↑
- Nitrate Regulation of MADs Box(2) (Arabidopsis plants): ↓
- Nitrate Regulation of MYB transcription factor (Arabidopsis plants): ↑
- Nitrate Regulation of Malate Dehydrogenase (Arabidopsis plants): ↑
- Nitrate Regulation of Nitrate transporter (Arabidopsis plants): ↑
- Nitrate Regulation of Phosphate transporter (Arabidopsis plants): ↑
- Nitrate Regulation of Transaldolase (Arabidopsis plants): ↑
- Nitrate Regulation of Transketolase (Arabidopsis plants): ↑

Structure (SMILES): CC[C@@H]([C@H](C)O)n1ncn(-c2ccc(N3CCN(c4ccc(OC[C@@H]5CO[C@@](Cn6cncn6)(c6ccc(F)cc6F)C5)cc4)CC3)cc2)c1=O [Posaconazoie]
- Fold Change luteolin ([4]; platform LC): 0

Structure (SMILES): CN(C)C(=O)Nc1ccc(Cl)c(Cl)c1 [Diuron]
- characteristic symptoms (phenotypic analysis) [1]: rapid and widespread leaf necrosis
- leafCurling (Dev.) [1]: 1
- leafTwisting (Dev.) [1]: 0
- leafWidth (Dev.) [1]: −2
- matureLeafAnthocyanins (Dev.) [1]: 0
- matureLeafChlorosis (Dev.) [1]: 2
- matureLeafNecrosis (Dev.) [1]: 4
- newLeafAnthocyanins (Dev.) [1]: newLeafAnthocyanins 0
- newLeafChlorosis (Dev.) [1]: 2
- newLeafNecrosis (Dev.) [1]: 4
- pointedLeaves (Dev.) [1]: 1
- tMic (Dev.) [1]: 1
- Symptom Class [1]: 7

Structure (SMILES): OC(Cn1cncn1)(Cn1cncn1)c1ccc(F)cc1F [Fiuconazole]
- Fold Change of hypoxanthine ([4]; nLC): 0.7757

Structure (SMILES): CCc1cccc(C)c1N(C(=O)CCl)C(C)COC (stereo not shown) [Metolachlor]
- Symptom Class [1]: 7

Structure (SMILES): O=C(O)Cn1c(=O)sc2cccc(Cl)c21 [Benazolin]
- Symptom Class [1]: 5

Structure (SMILES): O=C(O)COc1ccc(Cl)cc1Cl [2,4-D]
- leafCurling (Dev.) [1]: 1
- leafTwisting (Dev.) [1]: 2
- leafWidth (Dev.) [1]: −1
- matureLeafAnthocyanins (Dev.) [1]: 1
- matureLeafChlorosis (Dev.) [1]: 2
- matureLeafNecrosis (Dev.) [1]: 0
- newLeafAnthocyanins (Dev.) [1]: 0
- newLeafChlorosis (Dev.) [1]: 1
- newLeafNecrosis (Dev.) [1]: 0
- pointedLeaves (Dev.) [1]: 0
- tMic (Dev.) [1]: 2
- Symptom Class [1]: 5

Structure (SMILES): CNc1cnn(-c2cccc(C(F)(F)F)c2)c(=O)c1Cl [Norfluazon, Norflurazon]
- commonly regulated (putative stress-related) metabolites (Arabidopsis thaliana [2]): Only a few, if any, stress-related metabolites were observed

Structure (SMILES): COc1c(Cl)ccc(Cl)c1C(=O)O [Dicamba]
- Symptom Class [1]: 5

Structure (SMILES): CS(=O)(=O)c1cc(C(F)(F)F)ccc1C(=O)c1cnoc1C1CC1 [Isoxaflutole]
- Alpha-tocopherol levels (Arabidopsis thaliana [2]; MOA1 metabolite data, early time points): not significantly changed relative to the control
- tyrosine and phenylalanine levels (Arabidopsis thaliana [2]; MOA1 metabolite data, relative to the control): up-regulated relative to the control; also recorded: began to accumulate relative to the control after one hour
- No. of Lethal Genes Altered (Arabidopsis thaliana [3]): 15

Structure (SMILES): C[n+]1ccc(-c2cc[n+](C)cc2)cc1 [Paraquat]
- characteristic symptoms (phenotypic analysis) [1]: rapid and widespread leaf necrosis
- leafCurling (Dev.) [1]: 2
- leafTwisting (Dev.) [1]: 0
- leafWidth (Dev.) [1]: −1
- matureLeafAnthocyanins (Dev.) [1]: 0
- matureLeafChlorosis (Dev.) [1]: 1
- matureLeafNecrosis (Dev.) [1]: 4
- newLeafAnthocyanins (Dev.) [1]: 0
- newLeafChlorosis (Dev.) [1]: 1
- newLeafNecrosis (Dev.) [1]: 4
- pointedLeaves (Dev.) [1]: 1
- tMic (Dev.) [1]: 2
- Symptom Class [1]: 7

Structure (SMILES): CC[C@@H]([C@H](C)O)n1ncn(-c2ccc(N3CCN(c4ccc(OC[C@@H]5CO[C@@](Cn6cncn6)(c6ccc(F)cc6F)C5)cc4)CC3)cc2)c1=O [Posaconazote]
- Fold Change of porphobilinogen ([4]; platform nLC, p-Value 1): 0

Structure (SMILES): CCc1cnc(C2=NC(C)(C(C)C)C(=O)N2)c(C(=O)O)c1 (stereo not shown) [Imazethapyr]
- characteristic symptoms (phenotypic analysis) [1]: anthocyanin accumulation in the older leaves accompanied by chlorosis of the newly emerging leaves
- Symptom Class [1]: 4

Source: patent US20040018500A1, “Methods and systems for analyzing complex biological systems” (priority 2001, published 2004)
